Experimental data from publication PMC10287695, “Non-covalent inhibitors of thioredoxin glutathione reductase with schistosomicidal activity in vivo” (Nature Communications, 2023).
Like-named read-outs stand apart in the source and are kept apart here. Marks after values point to notes of the source that are not given here.

Tests used:
Vero cells = test: Cytotoxicity in mammalian cells (Cell Titer Glo); format: cell-based; details: for LD50 ex vivo VERO: African green monkey, 24 h; for EC50: Chlorocebus sabaeus, Vero, estimate from raw data, read-out: EC50 viability of Vero cells
Protocol: Following overnight incubation, formulated DMSO-compound stock solutions were diluted with DMEM at <1% DMSO final concentrations. […] Vero cells treated similarly with different concentrations of PZQ, MZM and AF (Cayman Chemicals) were used as positive controls.

Human GR = molecular target: T1, Human GR (Homo sapiens, UniProt P00390); test: Human GR enzyme inhibition (GSSG reduction, NADPH oxidation); format: biochemical; details: for inhibition at 15 µM / inhibition at 30 µM / inhibition at 66.7 µM: hGR, read-out: % inhibition; for inhibition at 15 µM: compound 15 µM; for inhibition at 30 µM: compound 30 µM; for inhibition at 66.7 µM: compound 66.7 µM
T1 construct: made in house
T1 sequence (P00390 44-522): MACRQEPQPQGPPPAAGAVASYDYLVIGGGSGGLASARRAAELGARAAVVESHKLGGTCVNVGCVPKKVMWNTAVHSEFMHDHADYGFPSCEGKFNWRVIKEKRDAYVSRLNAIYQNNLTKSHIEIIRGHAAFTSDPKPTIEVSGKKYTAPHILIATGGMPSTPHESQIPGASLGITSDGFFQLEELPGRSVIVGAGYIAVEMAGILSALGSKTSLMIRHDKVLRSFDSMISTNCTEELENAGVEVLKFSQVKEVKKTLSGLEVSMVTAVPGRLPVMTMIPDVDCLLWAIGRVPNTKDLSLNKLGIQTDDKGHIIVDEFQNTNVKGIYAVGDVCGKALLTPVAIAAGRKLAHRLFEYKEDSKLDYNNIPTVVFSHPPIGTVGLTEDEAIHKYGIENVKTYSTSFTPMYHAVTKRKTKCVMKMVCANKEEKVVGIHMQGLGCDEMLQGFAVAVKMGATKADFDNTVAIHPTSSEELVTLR

Human TrxR1 = molecular target: T2, Human TrxR1 (Homo sapiens, UniProt Q16881); test: Human TrxR1 enzyme inhibition (DTNB reduction); format: biochemical; details: for inhibition at 15 µM: compound 15 µM; for inhibition at 30 µM: compound 30 µM
T2 construct: made in house
T2 sequence (Q16881 1-499 isoform Q16881-5): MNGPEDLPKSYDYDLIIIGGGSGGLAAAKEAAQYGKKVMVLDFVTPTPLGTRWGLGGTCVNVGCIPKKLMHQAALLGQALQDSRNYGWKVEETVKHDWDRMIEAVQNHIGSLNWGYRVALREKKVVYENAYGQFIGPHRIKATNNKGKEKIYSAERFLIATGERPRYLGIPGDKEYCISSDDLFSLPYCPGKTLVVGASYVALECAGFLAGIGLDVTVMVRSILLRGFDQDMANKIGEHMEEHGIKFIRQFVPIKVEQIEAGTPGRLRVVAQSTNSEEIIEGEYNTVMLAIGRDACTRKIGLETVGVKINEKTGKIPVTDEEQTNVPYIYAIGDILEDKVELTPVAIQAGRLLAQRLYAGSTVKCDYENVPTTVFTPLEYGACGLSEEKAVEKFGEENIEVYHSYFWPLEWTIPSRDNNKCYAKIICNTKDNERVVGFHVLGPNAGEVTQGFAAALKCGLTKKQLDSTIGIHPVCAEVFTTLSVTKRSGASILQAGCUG
Protocol: Recombinant TGR, human TrxR1, B. malayi (Bm)TrxR and human GR proteins were expressed and purified as described[20],[69],[79]. The codon optimized sequence for P. falciparum (PfTrxR, https://www.ncbi.nlm.nih.gov/protein/CAA60574.1/) with an N-terminal 6-His tag was synthesized and inserted into pET15b (GenScript) and expressed in BL21 (DE3) cells and purified as described for human GR[20]. TGR and TrxR enzyme inhibition assays were performed in triplicate at 25 °C as described[20] in 0.1 M potassium phosphate (pH 7.4), 10 mM EDTA, 100 µM NADPH and 0.01% Tween-20. […] The reaction was started with addition of an equal volume of DTNB (6 mM) and NADPH (100 µM) and the increase in A412 during the first 3 min was recorded. […] The reaction was preincubated for 15 min. Activity was initiated with the addition of 1 mM GSSG and 100 μM NADPH and initial rates of NADPH oxidation were monitored at 340 nm. The reactions were done in triplicate. The IC50 was calculated in GraphPad Prism.

S. mansoni adult worms = test: Schistosomicidal activity ex vivo, adult worms (Cell Titer Glo), alone or with channel blockers; format: cell-based; details: for LD50 ex vivo S. mansoni adult: 24 h exposure; for viability at 35 µM: Conc. 35 µM
Protocol: Three-week old, female Swiss-Webster mice obtained from the Charles River were housed in the Comparative Research Center of Rush University Medical Center. Mice were infected by percutaneous tail exposure to about 200 S. mansoni or 50 S. japonicum cercaria for adult worms and about 1000 cercaria for juvenile S. mansoni worms through natural transdermal penetration of the cercariae for 1 h[81].
DMSO formulated compounds were diluted with phenol red free M199 medium or RPMI medium for NTS or juvenile and adult worms, respectively, at <1% DMSO final concentrations. NTS, juvenile and adult worms from overnight cultures were tested against compounds in triplicate. Controls were treated with DMSO alone or 5 µM AF as a positive control in appropriate medium. […] Schistosome viabilities in the presence of the compounds were assessed using this formula: % Viability = Averages of Test / Averages of DMSO Control x 100.

[1] = 15 min preincubation (enzyme + 100 µM NADPH + compound), read-out: Human TrxR1 IC50
[2] = 6 h preincubation, read-out: Human TrxR1 IC50 (µM) or inhibition (%) at 66.7 µM: IC50
[3] = hsTrxR, 15 minutes pre-incubation
[4] = Schistosoma mansoni, S. mansoni adult worms, Conc. 5 µM, read-out: % viability
[5] = Schistosoma mansoni, S. mansoni adult worms, Conc. 10 µM, read-out: % viability
[6] = Schistosoma mansoni, S. mansoni adult worms, Conc. 25 µM, read-out: % viability
[7] = Schistosoma mansoni, S. mansoni adult worms
[8] = hsTrxR, 15 minutes pre-incubation, compound 66.7 µM, read-out: % inhibition
[9] = 66.7 µM, 6 h preincubation, read-out: Human TrxR1 IC50 (µM) or inhibition (%) at 66.7 µM: inhibition
[10] = Schistosoma mansoni, S. mansoni adult worms, Conc. 30 µM, read-out: % viability

| SMILES | LD50 ex vivo VERO (Vero cells) | EC50 (Vero cells) [µM] | Human GR (inhibition at 66.7 µM) (Human GR) | inhibition at 15 µM (Human GR; 15 minutes pre-incubation) [%] | inhibition at 30 µM (Human GR; 15 minutes pre-incubation) [%] | inhibition at 15 µM (Human GR; 6 hours pre-incubation) [%] | inhibition at 30 µM (Human GR; 6 hours pre-incubation) [%] | IC50 (Human TrxR1; [1]) [µM] | IC50 (Human TrxR1; [2]) [µM] | inhibition at 15 µM (Human TrxR1; [3]) [%] | inhibition at 30 µM (Human TrxR1; [3]) [%] | LD50 ex vivo S. mansoni adult (S. mansoni adult worms; compound alone) [µM] | viability at 5 µM (S. mansoni adult worms; [4]) [%] | viability at 10 µM (S. mansoni adult worms; [5]) [%] | viability at 25 µM (S. mansoni adult worms; [6]) [%] | inhibition at 66.7 µM (Human GR; 15 minutes pre-incubation) [%] | inhibition at 66.7 µM (Human GR; 6 hours pre-incubation) [%] | inhibition at 66.7 µM (Human TrxR1; [8]) [%] | also measured |
| --- | --- | --- | --- | --- | --- | --- | --- | --- | --- | --- | --- | --- | --- | --- | --- | --- | --- | --- | --- |
| Cc1oc(-c2ccc3c(c2)OCO3)nc1CN[C@@H]1C[C@@H]2C[C@H]([C@H]1C)C2(C)C [Compound 1] | >75.5^a µM | > 200 | n.i. | -1.22 | -0.832 | -0.519 | -1.06 | > 66.7 | 37 ± 3.44 | 6.99 | 11.4 | 12.3 ± 1.30 | 77.3 | 58.4 | 0.888 | – | – | – | viability at 35 µM (S. mansoni adult worms; [7]): 0.238% |
| CCc1ccccc1-c1nc(CN[C@@H]2C[C@@H]3C[C@H]([C@H]2C)C3(C)C)c(C)o1 [Compound 2] | 54.7 ± 6.65 µM | > 50 | n.i. | -0.995 | -1.9 | -5.17 | -3.97 | > 66.7 | 50 ± 13.6 | 2.2 | 4.72 | 12.5 ± 0.40 | 86.9 | 59.5 | 0.114 | -0.827 | -3.29 | 11.5 | viability at 35 µM (S. mansoni adult worms; [7]): 0.0801% |
| Cc1oc(-c2ccccc2)nc1CN[C@@H]1C[C@@H]2C[C@H]([C@H]1C)C2(C)C [Compound 3] | 36.1 ± 3.0 µM | > 50 | n.i. | – | – | – | – | > 66.7 | 42.7 ± 3.95 | – | – | 12.1 ± 2.44 | – | – | – | – | – | – | – |
| Cc1oc(C2CCCCC2)nc1CN[C@@H]1C[C@@H]2C[C@H]([C@H]1C)C2(C)C [Compound 4] | >50^a µM | – | n.i. | – | – | – | – | > 66.7 | 19 ± 5.72 | 14.3 | 26.9 | 12.6 ± 1.86 | – | – | – | – | – | 40.2 | – |
| Cc1oc(-c2ccc3ccccc3c2)nc1CNC1CCCCCC1 [Compound 5] | >50^a µM | – | n.i. | – | – | – | – | > 66.7 | – | – | – | 9.36 ± 0.47 | – | – | – | – | – | – | inhibition at 66.7 µM (Human TrxR1; [9]): 28.5% |
| C#CCN(Cc1nc(-c2ccccc2)oc1C)[C@@H]1C[C@@H]2C[C@H]([C@H]1C)C2(C)C [Compound 6] | >100^a µM | – | n.i. | -0.749 | – | -0.648 | – | > 66.7 | – | – | 1.95 | 15.7 ± 0.64 | 88.5 | – | – | -0.295 | -0.21 | 2.61 | inhibition at 66.7 µM (Human TrxR1; [9]): 28.9%; viability at 15 µM (S. mansoni adult worms; Schistosoma mansoni, S. mansoni adult worms, Conc. 15 µM, read-out: % viability): 50.6%; viability at 30 µM (S. mansoni adult worms; [10]): 42%; viability at 50 µM (S. mansoni adult worms; Schistosoma mansoni, S. mansoni adult worms, Conc. 50 µM, read-out: % viability): 23.3% |
| Cc1oc(C2CCCCC2)nc1C(=O)N[C@@H]1C[C@@H]2C[C@H]([C@H]1C)C2(C)C [Compound 7] | >50^a µM | – | n.i. | -0.669 | -0.696 | -0.918 | -2.19 | 22.3 ± 2.03 | – | 38.1 | 63.3 | 32.6 ± 0.26 | 99.8 | 72.9 | 63 | -1.12 | -0.656 | 92.7 | viability at 5 µM (S. mansoni adult worms; Schistosoma mansoni, 5 µM, compound alone, read-out: % viability, adult worms): 99.8%; viability at 10 µM (S. mansoni adult worms; Schistosoma mansoni, 10 µM, compound alone, read-out: % viability, adult worms): 72.9%; viability at 25 µM (S. mansoni adult worms; Schistosoma mansoni, 25 µM, compound alone, read-out: % viability, adult worms): 63%; viability at 30 µM (S. mansoni adult worms; Schistosoma mansoni, 30 µM, compound alone, read-out: % viability, adult worms): 59%; viability at 30 µM (S. mansoni adult worms; [10]): 59% |
